Assays:
[1] = target: Mitogen-activated protein kinase kinase kinase kinase 5 (Homo sapiens, UniProt Q9Y4K4); assay: Inhibition of recombinant full length human MAP4K5 using myelin basic protein as substrate incubated for 40 mins in presence of [gamma-33ATP by radiometric scintillation counting analysis
[2] = target: Serine/threonine-protein kinase ULK2 (Homo sapiens, UniProt Q8IYT8); assay: Inhibition of recombinant human ULK2 (1 to 306 residues) using casein as substrate incubated for 40 mins in presence of [gamma33P]ATP by radiometric scintillation counting analysis
[3] = target: NUAK family SNF1-like kinase 2 (Homo sapiens, UniProt Q9H093); assay: Inhibition of recombinant human full length NUAK2 using KKKVSRSGLYRSP as substrate measured after 40 mins in presence of [gamma33P]ATP by radiometric scintillation counting analysis
[4] = target: Tyrosine-protein kinase BTK (Homo sapiens, UniProt Q06187, R28H); assay: Inhibition of recombinant full length human BTK R28H mutant using KVEKIGEGTYGVV substrate incubated for 40 mins in presence of [gamma-33ATP] by radiometric scintillation counting analysis
[5] = target: Serine/threonine-protein kinase NLK (Homo sapiens, UniProt Q9UBE8); assay: Inhibition of recombinant human NLK (121 to end residues) using protein as substrate measured after 40 mins in presence of [gamma33P]ATP by radiometric scintillation counting analysis
[6] = target: Muscle, skeletal receptor tyrosine-protein kinase (Homo sapiens, UniProt O15146); assay: Inhibition of recombinant human MUSK (530 to end residues) using myelin basic protein as substrate measured after 40 mins in presence of [gamma33P]ATP by radiometric scintillation counting analysis
[7] = target: Ribosomal protein S6 kinase alpha-3 (Homo sapiens, UniProt P51812); assay: Inhibition of recombinant human Rsk2 (2 to end residues) using KKKNRTLSVA as substrate incubated for 40 mins in presence of [gamma33P]ATP by radiometric scintillation counting analysis
[8] = target: Rho-associated protein kinase 2 (Homo sapiens, UniProt O75116); assay: Inhibition of recombinant human ROCK2 (11 to 552 residues) using KEAKEKRQEQIAKR as substrate incubated for 40 mins in presence of [gamma-33P]ATP and 10 uM ATP by radiometric scintillation counting analysis
eIF-2-alpha kinase GCN2 = eIF-2-alpha kinase GCN2 (Homo sapiens, UniProt Q9P2K8, E556G); assay: Inhibition of recombinant full length human GCN2 E556G mutant using RSRSRSRSRSRSR as substrate after 40 mins in presence of [gamma-33ATP] by radiometric scintillation counting analysis
Ephrin type-A receptor 1 = Ephrin type-A receptor 1 (Homo sapiens, UniProt P21709); assay: Inhibition of recombinant human EphA1 (568 to end residues) using KKKSPGEYVNIEF as substrate after 40 mins in presence of [gamma-33ATP] by radiometric scintillation counting analysis
[9] = target: Leucine-rich repeat serine/threonine-protein kinase 2 (Homo sapiens, UniProt Q5S007); assay: Inhibition of recombinant human LRRK2 (970 to end residues) using RLGRDKYKTLRQI as substrate after 40 mins in presence of [gamma-33ATP] by radiometric scintillation counting analysis
[10] = target: Calcium/calmodulin-dependent protein kinase kinase 1 (Homo sapiens, UniProt Q8N5S9); assay: Inhibition of recombinant full length human CaMKK1 using calmodulin as substrate incubated for 40 mins in presence of [gamma-33ATP] by radiometric scintillation counting analysis
[11] = target: Serine/threonine-protein kinase B-raf (Homo sapiens, UniProt P15056); assay: Inhibition of recombinant full length human B-Raf (416 to end residues) using myelin basic protein substrate incubated for 40 mins in presence of [gamma-33ATP] by radiometric scintillation counting analysis
[12] = Inhibition of human PIP4K2
Casein kinase 2 = Casein kinase 2 (Homo sapiens, UniProt P67870+P68400+P19784+Q8NEV1); assay: Inhibition of recombinant human CK2 in presence of [gamma-33ATP] by radiometric scintillation counting analysis; format: protein assay
[13] = target: Mast/stem cell growth factor receptor Kit (Homo sapiens, UniProt P10721); assay: Inhibition of recombinant human C-Kit (544 to end residues) using poly (Glu,Tyr) 4:1 as substrate in presence of [gamma-33ATP] by radiometric scintillation counting analysis
[14] = target: Mast/stem cell growth factor receptor Kit (Homo sapiens, UniProt P10721, D816H); assay: Inhibition of recombinant human C-Kit D816H mutant (544 to end residues) using poly(Glu, Tyr) 4:1 as substrate incubated 40 mins in presence of [gamma-33ATP] by radiometric scintillation counting analysis
[15] = Inhibition of recombinant human MAPKAPK2 A399G mutant (46 to end residues) using KKLNRTLSVA as substrate incubated for 40 mins in presence of [gamma-33ATP by radiometric scintillation counting analysis
[16] = Inhibition of human SNRK E97G/P116A double mutant (65 to 409 residues) using KKLRRTLSFAEPG as substrate incubated for 40 mins in presence of [gamma33P]ATP by radiometric scintillation counting analysis
[17] = target: Receptor-type tyrosine-protein kinase FLT3 (Homo sapiens, UniProt P36888); assay: Inhibition of recombinant human FLT3 (564 to end residues) using EAIYAAPFAKKK as substrate after 40 mins in presence of [gamma-33ATP] by radiometric scintillation counting analysis
[18] = target: Serine/threonine-protein kinase TAO3 (Homo sapiens, UniProt Q9H2K8); assay: Inhibition of recombinant human TAO3 N47S mutant (1 to 411 residues) using myelin basic protein as substrate incubated for 40 mins in presence of [gamma33P]ATP by radiometric scintillation counting analysis
[19] = target: Protein kinase C zeta type (Homo sapiens, UniProt Q05513); assay: Inhibition of recombinant human PKCzeta (2 to end residues) using ERMRPRKRQGSVRR as substrate incubated for 40 mins in presence of [gamma33P]ATP by radiometric scintillation counting analysis
[20] = target: Fibroblast growth factor receptor 1 (Homo sapiens, UniProt P11362); assay: Inhibition of recombinant human FGFR1 (456 to 765 residues) using KKKSPGEYVNIEF as substrate after 40 mins in presence of [gamma-33ATP] by radiometric scintillation counting analysis
[21] = target: Vascular endothelial growth factor receptor 1 (Homo sapiens, UniProt P17948); assay: Inhibition of recombinant human FLT1 (783 to end residues) using KKKSPGEYVNIEF as substrate after 40 mins in presence of [gamma-33ATP] by radiometric scintillation counting analysis
[22] = target: Fibroblast growth factor receptor 2 (Homo sapiens, UniProt P21802); assay: Inhibition of recombinant human FGFR2 (456 to 770 residues) using poly(Glu, Tyr) 4:1 as substrate after 40 mins in presence of [gamma-33ATP] by radiometric scintillation counting analysis
[23] = target: Serine/threonine-protein kinase Nek11 (Homo sapiens, UniProt Q8NG66); assay: Inhibition of recombinant full length human NEK11 using myelin basic protein as substrate measured after 40 mins in presence of [gamma33P]ATP by radiometric scintillation counting analysis

Measured: IC50

Sequence of Serine/threonine-protein kinase TAO3 (Q9H2K8 whole entry, the tested form may be a part): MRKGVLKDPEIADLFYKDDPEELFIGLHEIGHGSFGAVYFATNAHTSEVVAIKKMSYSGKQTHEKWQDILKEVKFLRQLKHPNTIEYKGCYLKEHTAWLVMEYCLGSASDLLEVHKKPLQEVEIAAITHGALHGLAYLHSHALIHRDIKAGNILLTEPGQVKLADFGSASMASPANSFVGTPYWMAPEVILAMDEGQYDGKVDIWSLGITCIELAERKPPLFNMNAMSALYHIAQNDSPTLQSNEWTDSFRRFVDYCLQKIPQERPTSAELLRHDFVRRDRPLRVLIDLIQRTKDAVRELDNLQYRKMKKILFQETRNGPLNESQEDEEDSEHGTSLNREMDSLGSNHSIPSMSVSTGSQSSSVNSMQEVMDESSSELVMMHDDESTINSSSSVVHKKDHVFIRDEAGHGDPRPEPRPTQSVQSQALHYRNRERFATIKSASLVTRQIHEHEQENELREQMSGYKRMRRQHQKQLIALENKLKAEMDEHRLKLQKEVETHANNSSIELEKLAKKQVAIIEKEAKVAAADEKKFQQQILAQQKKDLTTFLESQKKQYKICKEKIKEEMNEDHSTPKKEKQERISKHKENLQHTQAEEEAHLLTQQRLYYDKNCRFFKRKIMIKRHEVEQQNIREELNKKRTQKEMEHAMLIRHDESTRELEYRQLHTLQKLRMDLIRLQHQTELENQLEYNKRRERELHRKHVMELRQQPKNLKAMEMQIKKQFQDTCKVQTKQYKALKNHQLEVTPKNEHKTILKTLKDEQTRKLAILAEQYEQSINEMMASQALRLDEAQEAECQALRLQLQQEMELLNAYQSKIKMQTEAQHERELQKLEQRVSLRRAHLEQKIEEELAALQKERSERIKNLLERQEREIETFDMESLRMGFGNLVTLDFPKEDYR
Sequence of Serine/threonine-protein kinase Nek11 (Q8NG66 whole entry): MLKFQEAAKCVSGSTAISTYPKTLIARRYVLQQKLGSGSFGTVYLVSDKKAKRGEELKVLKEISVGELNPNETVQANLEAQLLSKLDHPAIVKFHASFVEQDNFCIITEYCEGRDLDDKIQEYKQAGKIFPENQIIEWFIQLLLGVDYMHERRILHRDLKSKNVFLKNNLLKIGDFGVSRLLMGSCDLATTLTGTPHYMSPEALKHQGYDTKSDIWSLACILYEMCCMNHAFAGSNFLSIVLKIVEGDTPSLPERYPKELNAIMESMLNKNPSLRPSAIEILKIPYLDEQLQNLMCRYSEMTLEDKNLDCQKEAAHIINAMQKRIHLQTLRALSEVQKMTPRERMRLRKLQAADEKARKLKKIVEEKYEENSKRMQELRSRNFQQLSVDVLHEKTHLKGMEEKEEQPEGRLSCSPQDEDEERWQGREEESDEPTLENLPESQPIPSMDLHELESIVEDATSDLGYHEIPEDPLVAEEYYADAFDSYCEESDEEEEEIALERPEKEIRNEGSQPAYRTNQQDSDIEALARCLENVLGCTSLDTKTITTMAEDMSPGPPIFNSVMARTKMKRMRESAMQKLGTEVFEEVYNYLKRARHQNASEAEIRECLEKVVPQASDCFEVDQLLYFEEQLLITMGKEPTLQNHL
Sequence of eIF-2-alpha kinase GCN2 (Q9P2K8 whole entry E556G): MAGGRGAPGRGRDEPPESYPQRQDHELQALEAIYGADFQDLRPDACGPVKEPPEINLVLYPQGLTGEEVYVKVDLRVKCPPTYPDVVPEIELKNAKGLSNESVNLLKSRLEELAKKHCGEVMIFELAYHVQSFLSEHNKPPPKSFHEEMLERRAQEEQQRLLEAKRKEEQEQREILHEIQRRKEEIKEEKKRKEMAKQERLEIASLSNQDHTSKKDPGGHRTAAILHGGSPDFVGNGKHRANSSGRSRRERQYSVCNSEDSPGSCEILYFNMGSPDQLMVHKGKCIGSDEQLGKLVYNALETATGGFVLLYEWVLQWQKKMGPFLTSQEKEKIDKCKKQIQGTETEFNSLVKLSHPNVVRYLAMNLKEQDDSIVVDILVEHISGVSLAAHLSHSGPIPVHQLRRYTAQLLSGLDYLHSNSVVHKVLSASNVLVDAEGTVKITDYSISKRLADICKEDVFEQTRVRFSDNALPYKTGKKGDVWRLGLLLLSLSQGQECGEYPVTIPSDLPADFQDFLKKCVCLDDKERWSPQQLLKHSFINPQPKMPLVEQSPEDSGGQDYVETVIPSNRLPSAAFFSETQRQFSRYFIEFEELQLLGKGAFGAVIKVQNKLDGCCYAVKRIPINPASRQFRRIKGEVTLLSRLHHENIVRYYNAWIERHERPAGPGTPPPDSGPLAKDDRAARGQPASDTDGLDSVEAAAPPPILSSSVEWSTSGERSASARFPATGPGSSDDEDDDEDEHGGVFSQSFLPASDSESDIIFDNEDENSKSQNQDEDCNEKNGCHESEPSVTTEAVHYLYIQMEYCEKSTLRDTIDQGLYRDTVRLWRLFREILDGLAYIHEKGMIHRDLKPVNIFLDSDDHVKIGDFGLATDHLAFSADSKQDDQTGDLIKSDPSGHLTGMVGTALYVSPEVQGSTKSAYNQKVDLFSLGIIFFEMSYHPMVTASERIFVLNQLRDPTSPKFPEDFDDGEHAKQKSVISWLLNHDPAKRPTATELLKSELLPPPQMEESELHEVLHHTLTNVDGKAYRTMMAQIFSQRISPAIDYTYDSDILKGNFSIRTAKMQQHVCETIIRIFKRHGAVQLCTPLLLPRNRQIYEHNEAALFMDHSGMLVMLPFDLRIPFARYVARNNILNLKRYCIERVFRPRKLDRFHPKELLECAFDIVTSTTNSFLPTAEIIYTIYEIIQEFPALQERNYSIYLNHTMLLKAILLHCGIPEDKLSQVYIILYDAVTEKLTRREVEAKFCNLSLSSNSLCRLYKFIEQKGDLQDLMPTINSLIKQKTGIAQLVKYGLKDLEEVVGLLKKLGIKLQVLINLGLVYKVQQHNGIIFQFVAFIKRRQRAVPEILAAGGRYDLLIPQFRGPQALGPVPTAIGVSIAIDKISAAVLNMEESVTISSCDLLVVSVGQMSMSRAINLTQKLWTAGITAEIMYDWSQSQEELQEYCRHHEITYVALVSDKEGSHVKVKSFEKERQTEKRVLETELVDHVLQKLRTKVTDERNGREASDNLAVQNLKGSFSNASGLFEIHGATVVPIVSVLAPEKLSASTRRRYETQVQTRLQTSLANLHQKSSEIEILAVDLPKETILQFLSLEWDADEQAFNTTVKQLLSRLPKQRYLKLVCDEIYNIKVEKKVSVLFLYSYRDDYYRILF
Sequence of Vascular endothelial growth factor receptor 1 (P17948 whole entry, the tested form may be a part): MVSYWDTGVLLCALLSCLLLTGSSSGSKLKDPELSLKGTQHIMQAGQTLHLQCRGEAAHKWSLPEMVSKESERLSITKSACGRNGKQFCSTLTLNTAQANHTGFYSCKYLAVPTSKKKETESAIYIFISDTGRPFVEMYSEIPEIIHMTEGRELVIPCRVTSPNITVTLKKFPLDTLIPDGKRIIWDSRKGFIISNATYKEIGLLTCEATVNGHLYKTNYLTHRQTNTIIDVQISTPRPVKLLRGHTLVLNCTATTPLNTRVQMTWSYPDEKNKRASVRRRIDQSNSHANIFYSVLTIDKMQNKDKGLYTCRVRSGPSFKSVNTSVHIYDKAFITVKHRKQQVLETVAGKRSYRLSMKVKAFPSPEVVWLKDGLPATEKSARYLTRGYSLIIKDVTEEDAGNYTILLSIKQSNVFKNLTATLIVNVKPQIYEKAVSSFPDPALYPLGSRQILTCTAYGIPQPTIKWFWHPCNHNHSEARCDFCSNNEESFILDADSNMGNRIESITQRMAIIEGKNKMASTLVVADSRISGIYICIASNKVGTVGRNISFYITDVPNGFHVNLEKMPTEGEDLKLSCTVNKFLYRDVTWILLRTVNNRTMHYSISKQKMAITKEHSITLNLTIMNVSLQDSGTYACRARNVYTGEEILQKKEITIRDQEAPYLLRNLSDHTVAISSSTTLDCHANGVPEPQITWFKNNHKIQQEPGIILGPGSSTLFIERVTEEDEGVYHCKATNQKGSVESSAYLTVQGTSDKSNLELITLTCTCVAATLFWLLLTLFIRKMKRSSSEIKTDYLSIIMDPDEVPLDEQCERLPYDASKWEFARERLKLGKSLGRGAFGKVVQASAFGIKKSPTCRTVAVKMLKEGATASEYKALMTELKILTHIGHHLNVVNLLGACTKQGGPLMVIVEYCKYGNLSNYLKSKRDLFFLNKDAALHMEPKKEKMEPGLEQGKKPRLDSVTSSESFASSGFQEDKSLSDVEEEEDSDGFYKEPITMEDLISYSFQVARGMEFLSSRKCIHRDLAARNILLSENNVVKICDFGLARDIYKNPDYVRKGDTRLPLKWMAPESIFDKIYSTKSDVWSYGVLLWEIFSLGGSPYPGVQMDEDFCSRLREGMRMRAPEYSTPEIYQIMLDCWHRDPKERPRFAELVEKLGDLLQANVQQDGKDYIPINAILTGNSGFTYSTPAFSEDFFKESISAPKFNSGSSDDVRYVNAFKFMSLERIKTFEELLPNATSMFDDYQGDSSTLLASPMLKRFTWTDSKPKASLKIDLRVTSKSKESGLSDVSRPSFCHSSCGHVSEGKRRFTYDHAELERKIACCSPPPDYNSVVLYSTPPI
Sequence of Serine/threonine-protein kinase NLK (Q9UBE8 whole entry): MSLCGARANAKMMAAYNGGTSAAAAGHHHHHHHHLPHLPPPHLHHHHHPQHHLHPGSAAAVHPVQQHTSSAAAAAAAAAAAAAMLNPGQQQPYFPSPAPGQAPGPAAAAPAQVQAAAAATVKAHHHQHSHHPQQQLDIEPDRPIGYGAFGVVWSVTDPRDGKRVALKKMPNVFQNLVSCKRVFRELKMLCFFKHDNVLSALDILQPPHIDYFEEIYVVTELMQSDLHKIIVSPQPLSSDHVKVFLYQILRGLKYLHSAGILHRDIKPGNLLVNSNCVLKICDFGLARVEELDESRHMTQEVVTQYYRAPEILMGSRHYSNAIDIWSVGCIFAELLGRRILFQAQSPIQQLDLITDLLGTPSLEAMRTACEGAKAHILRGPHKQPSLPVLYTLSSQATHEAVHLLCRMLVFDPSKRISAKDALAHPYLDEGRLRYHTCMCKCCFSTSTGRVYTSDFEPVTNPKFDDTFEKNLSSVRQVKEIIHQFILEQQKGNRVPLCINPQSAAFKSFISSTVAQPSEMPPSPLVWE

CN(C)c1ccc(C(=O)Nc2cccc(NC(=O)COc3ccc4c(=O)ccoc4c3)c2)cc1
> 10 µM: [1] | [2] | [3] | [4] | [5] | [6] | [7] | eIF-2-alpha kinase GCN2 | Ephrin type-A receptor 1 | [9] | [10] | [11] | [12] | Casein kinase 2 | [13] | [14] | [15] | [16] | [17] | [18] | [19] | [20] | [21] | [22] | [23]
0.003 µM: [8]

Source: ChEMBL document CHEMBL4376834, “Discovery of 4H-Chromen-4-one Derivatives as a New Class of Selective Rho Kinase (ROCK) Inhibitors, which Showed Potent Activity in ex Vivo Diabetic Retinopathy Models” (J Med Chem, 2019)
